Assay results from patent US9801901B2, “Alginate oligomers for use in overcoming multidrug resistance in bacteria” (priority 2009, dated 2017).
In brackets after ≈: the same amount, converted by molar mass. Marks after values point to notes of the source that are not given here.

Test system: V23 1322 Burkholderia cepacia
Assay: MIC assay, CAMHB with alginate oligomer, no visible growth
Format: cell-based
Details: Table 5, V23 MDR Burk cep

`CC1(C)C[C@@H]1C(=O)N/C(=C\CCCCSC[C@H](N)C(=O)O)C(=O)O` [Primaxin, Imipenem/cilastatin] was tested, and the MIC (Burkholderia cepacia, OligoCF-5/20 0G) was 32 µg/mL (≈ 89.3 µM), the MIC (OligoCF-5/20 +2% G) was 32 µg/mL (≈ 89.3 µM) and the MIC (OligoCF-5/20 +6% G) was 32 µg/mL (≈ 89.3 µM). For the same compound, the MIC (OligoCF-5/20 +10% G) was 8^† μg/ml.
